How the values were obtained:
MDR1-MDCK cells = assay: Blood brain barrier penetration potential using MDR1-MDCK cells; type: in vitro ADME
Method: The test compounds were prepared as a 5 μM solution in HBSSg with a maximum DMSO concentration ≤1%. Confluent monolayers of MDR1-MDCK cells, 7 to 11 days old were prepared. The receiver well was prepared with 1% BSA in modified Hanks buffer (HBSSg), and the apical and basolateral sides were maintained at pH 7.4±0.2. Two monolayers were dosed in each direction (N=2): the apical side was dosed for (A→B) assessment and the basolateral side was dosed for (B→A) assessment. Test compound concentration was measured for both apical and basolateral sides at a time point of 120 minutes using a generic LC/MS/MS method with a minimum 4 point calibration curve. The reported values in FIG. 14: the percent recovery of the test compound from the Transwell® wells containing MDR1-MDCK cell monolayers; apparent permeability (Papp) in both directions; efflux ratio (Papp B→A)/(Papp A→B); and the blood-brain barrier penetration potential classification. […] Also, R enantiomer experiences less efflux. […] Higher blood-brain barrier penetration is a significant advantage for medical indications where central nervous system (CNS) penetration is required.

[1] = Blood serum levels after oral gavage in Labrasol; type: in vivo, C57BL/6N:Crl mice; conditions: 30 and 50 mg/kg/day, 9 and 12 days
Method: Compounds in Labrasol were administered to C57BL/6N:Crl (wild-type) mice (Charles River Laboratories) by oral gavage, the intended route of administration in humans. Dosage was set at 3, 10, 30, or 50 mg/kg/day and 2.5 mL/kg/dose (FIG. 16). Doses were administered for 9 days (first 18 females/group) or 12 days (second 18 females/group) (FIG. 16). Blood was withdrawn at 9-day and 12-day time points. Concentrations were quantified by reverse-phase HPLC.
For each concentration, the samples were prepared by adding Labrasol to solid R enantiomer or racemate in a beaker, sonicating to break up visible aggregates, and magnetic stirring until a uniform appearance was attained. The mixtures were transferred to a graduated cylinder and topped off to the requisite volume using a Labrasol rinse of the beaker. The contents of the cylinder were mixed by inversion and stirred magnetically until dosing.
Mouse blood serum levels as a function of time were measured by quantitative HPLC. […] The initial particle size differences between racemate an R enantiomer may account for a portion of the serum level differences. Also, the greater intrinsic solubility of the R enantiomer over the racemate in Labrasol may account for a portion of the serum level differences. […]

[2] = test system: RheoSwitch® Therapeutic System (RTS) gene expression; assay: In vivo induction of RTS SEAP reporter in electroporated mice; set-up: species or system C57BL6 mice; conditions: intraperitoneal injection 26 nmol/mouse; monitored seventeen days
From the text: The wild-type D, E, and F domains from spruce budworm Choristoneura fumiferana EcR (“CfEcR-DEF”; SEQ ID NO: 1) were mutated [V107 (gtt)→1107 (att) and Y127 (tac)→E127 (gag)] and fused to a GAL4 DNA binding domain (“Gal4DBD1-147”; SEQ ID NO: 2). Helices 1 through 8 of the EF domains from Homo sapiens RXRPβ (“HsRXRβ-EF”; nucleotides 1-465 of SEQ ID NO: 4) and helices 9 through 12 of the EF domains of Locusta migratoria Ultraspiracle Protein (“LmUSP-EF”; nucleotides 403-630 of SEQ ID NO: 5) were fused to the transactivation domain from VP16 (“VP16AD”; SEQ ID NO: 6), which regulates a reporter gene human secreted alkaline phosphatase (“SEAP”, SEQ ID NO: 12) that was placed under the control of a 6xGAL4 response element (SEQ ID NO: 13) and a transthyretin promoter (SEQ ID NO: 14). Each element of the gene switch was on a separate plasmid. Receptor expression was under the control of a CMV promoter (SEQ ID NO: 15). Induction was evaluated by the amount of reporter protein expressed in the presence of ligand.
SEAP expression in serum of mice was evaluated after electroporation of the gene switch into mouse quadriceps. Mice were anesthetized with 2 μL/g of a mixture of ketamine (100 mg/mL) and xylazine (20 mg/mL). Animals were then shaved, DNA vectors injected into the muscle in a volume of 2×50 μL polyglutamic acid (12 mg/mL water), electrode conductivity gel applied, and an electrode caliber (1 cm×1 cm; model 384) was placed on hind leg. The muscle was electroporated with 200 V/cm, 8 times, for 20 msec/pulse, at 1 sec time intervals. The transverse electrical field direction was reversed after the animals received half of the pulses. Electroporation was performed with an ECM 830 electroporator from BTX Molecular Delivery Systems.
[…] In other experiments the concentration of ligand was decreased to 26 nmol/50 μL of DMSO/mouse. […]
Mouse serum was obtained by centrifugation of blood acquired by retroorbital bleeding with a small glass capillary tube. SEAP quantification was determined using a Clontech Great Escape chemiluminescence kit and by comparison with the Clontech SEAP standard. […]

| Compound | blood-brain barrier penetration potential classification (MDR1-MDCK cells) | blood serum levels [1] | RTS gene reporter (SEAP) expression in mouse serum [2] | efflux, compared (MDR1-MDCK cells) | apparent permeability (Papp), compared (MDR1-MDCK cells; A→B and B→A, 5 μM, 120 minutes) |
| --- | --- | --- | --- | --- | --- |
| CCCC(N(NC(=O)c1cccc(OC)c1CC)C(=O)c1cc(C)cc(C)c1)C(C)(C)C (racemic) [rac-1, rac-2-ethyl-3-methoxy-benzoic acid N′-(1-tert-butyl-butyl)-N′-(3,5-dimethyl-benzoyl)-hydrazide] | low | substantially lower (<4-5 fold AUC) | induces modest RTS gene reporter expression |  |  |
| CCC[C@@H](N(NC(=O)c1cccc(OC)c1CC)C(=O)c1cc(C)cc(C)c1)C(C)(C)C [Example 1, (R)-3,5-Dimethyl-benzoic Acid N-(1-tert-butyl-butyl)-N′-(2-ethyl-3-methoxy-benzoyl)-hydrazide] | moderately penetrating through the blood-brain barrier | significantly higher blood serum levels | induces substantial RTS gene reporter expression | less efflux | more permeable than racemate in both A→B and B→A directions |

— patent publication US20200270225A1, “Chiral Diacylhydrazine Ligands for Modulating the Expression of Exogenous Genes via an Ecdysone Receptor Complex” (Intrexon Corporation, priority 2007, published 2020)
